# Biological target: T1, Human Polθ polymerase domain (aa1820-2590) (Homo sapiens, UniProt O75417)
# T1 construct: Human Polθ polymerase domain (aa1820-2590) was expressed in E. coli; made in house; host or cells: E. coli
# T1 sequence (O75417 1820-2590): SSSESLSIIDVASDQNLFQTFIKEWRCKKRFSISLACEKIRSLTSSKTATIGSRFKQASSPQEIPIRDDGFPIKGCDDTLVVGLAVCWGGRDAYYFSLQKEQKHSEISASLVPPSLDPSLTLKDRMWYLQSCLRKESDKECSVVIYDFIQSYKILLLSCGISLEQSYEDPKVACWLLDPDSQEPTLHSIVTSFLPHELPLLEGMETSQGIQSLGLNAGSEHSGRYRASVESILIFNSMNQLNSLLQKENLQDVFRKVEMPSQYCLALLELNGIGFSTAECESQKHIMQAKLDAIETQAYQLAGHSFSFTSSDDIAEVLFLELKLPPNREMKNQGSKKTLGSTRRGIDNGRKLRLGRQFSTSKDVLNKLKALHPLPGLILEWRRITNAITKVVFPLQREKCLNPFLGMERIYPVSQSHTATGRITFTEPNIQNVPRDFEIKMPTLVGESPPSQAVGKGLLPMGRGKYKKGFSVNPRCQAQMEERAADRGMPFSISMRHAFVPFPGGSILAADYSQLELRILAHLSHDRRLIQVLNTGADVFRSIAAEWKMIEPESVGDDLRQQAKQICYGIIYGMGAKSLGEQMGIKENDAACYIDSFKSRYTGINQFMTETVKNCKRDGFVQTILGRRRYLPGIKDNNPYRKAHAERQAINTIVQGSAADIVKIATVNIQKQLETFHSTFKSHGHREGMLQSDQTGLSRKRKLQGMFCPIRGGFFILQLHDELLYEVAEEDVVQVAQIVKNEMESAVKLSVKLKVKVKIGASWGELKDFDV
# Assay: Polθ Polymerase Domain Kinact/KI Assay (PicoGreen)
# Type: biochemical
# Settings: 0.8 nM Polθ, 100 nM DNA substrate, kobs vs [I] fit for 2-step covalent inhibitor
# How it was run: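 Time-dependent inhibition was followed by quenching reactions with EDTA at points up to 60 min, then staining product DNA with PicoGreen fluorescence. Reactions held 0.8 nM E. coli-expressed Polθ, 100 nM primed DNA substrate and […] at pH 7.5, 1% DMSO. kobs versus inhibitor concentration gave Kinact and KI.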
row,Compound,Kinact/Kl
1,"C=C(CN(C)C)C(=O)Nc1ccc(CN2C[C@H]3CC(=O)N(c4cc(C(F)(F)F)cc(C)n4)[C@@H]3C(=O)N(C)c3cccc(C)c32)cc1OC [Example 210, N-(4-(((3aR,11aS)-6,10-dimethyl-1-(6-methyl-4-(trifluoromethyl)pyridin-2-yl)-2,11-dioxo-1,2,3,3a,4,10,11,11a-octahydro-5H-benzo[b]pyrrolo[2,3-f][1,4]diazocin-5-yl)methyl)-2-methoxyphenyl)-2-((dimethylamino)methyl)acrylamide]",630000 M⁻¹ s⁻¹
2,"Cc1cc(C(F)(F)F)cc(N2C(=O)C[C@@H]3CN(Cc4ccc(NC(=O)C5=CCCN(C)C5)cc4)c4c(C)cccc4N(C)C(=O)[C@H]32)n1 [Example 211, N-(4-(((3aR, 11aS)-6,10-dimethyl-1-(6-methyl-4-(trifluoromethyl)pyridin-2-yl)-2,11-dioxo-1,2,3,3a,4,10,11,11a-octahydro-5H-benzo[b]pyrrolo [2,3-f][1,4]diazocin-5-yl)methyl)phenyl)-1-methyl-1,2,5,6-tetrahydropyridine-3-carboxamide]",1.57e+06 M⁻¹ s⁻¹
3,"C=CC(=O)N1CC(N2CCC(CN3C[C@H]4CC(=O)N(c5cc(C(F)(F)F)cc(C)n5)[C@@H]4C(=O)N(C)c4cccc(F)c43)CC2)C1 [Example 212, (3aR,11aS)-5-((1-(1-acryloylazetidin-3-yl)piperidin-4-yl)methyl)-6-fluoro-10-methyl-1-(6-methyl-4-(trifluoromethyl)pyridin-2-yl)-1,3a,4,5,10,11a-hexahydro-2H-benzo[b]pyrrolo [2,3-f][1,4] diazocine-2,11 (3H)-dione]",1.81e+06 M⁻¹ s⁻¹
4,"C=CC(=O)N1CC(N2CC[C@H](CN3C[C@H]4CC(=O)N(c5cc(C(F)(F)F)cc(C)n5)[C@@H]4C(=O)N(C)c4cccc(F)c43)C2)C1 [Example 213, (3aR,11aS)-5-(((S)-1-(1-acryloylazetidin-3-yl)pyrrolidin-3-yl)methyl)-6-fluoro-10-methyl-1-(6-methyl-4-(trifluoromethyl)pyridin-2-yl)-1,3a,4,5,10,11a-hexahydro-2H-benzo[b]pyrrolo [2,3-f][1,4] diazocine-2,11(3H)-dione]",1.08e+06 M⁻¹ s⁻¹
5,"C=CC(=O)N1CC(N2CC[C@@H](CN3C[C@H]4CC(=O)N(c5cc(C(F)(F)F)cc(C)n5)[C@@H]4C(=O)N(C)c4cccc(F)c43)C2)C1 [Example 214, (3aR,11aS)-5-(((R)-1-(1-acryloylazetidin-3-yl)pyrrolidin-3-yl)methyl)-6-fluoro-10-methyl-1-(6-methyl-4-(trifluoromethyl)pyridin-2-yl)-1,3a,4,5,10,11a-hexahydro-2H-benzo[b]pyrrolo [2,3-f][1,4] diazocine-2,11 (3H)-dione]",320000 M⁻¹ s⁻¹
6,"C=CC(=O)N1CC(N2CCC(CCN3C[C@H]4CC(=O)N(c5cc(C(F)(F)F)cc(C)n5)[C@@H]4C(=O)N(C)c4cccc(F)c43)CC2)C1 [Example 215, (3aR,11aS)-5-(2-(1-(1-acryloylazetidin-3-yl)piperidin-4-yl)ethyl)-6-fluoro-10-methyl-1-(6-methyl-4-(trifluoromethyl)pyridin-2-yl)-1,3a,4,5,10,11a-hexahydro-2H-benzo[b]pyrrolo [2,3-f][1,4] diazocine-2,11 (3H)-dione]",1.21e+06 M⁻¹ s⁻¹
7,"C=CC(=O)N1CC(N2CCC(N3C[C@H]4CC(=O)N(c5cc(C(F)(F)F)cc(C)n5)[C@@H]4C(=O)N(C)c4cccc(F)c43)CC2)C1 [Example 216, (3aR,11aS)-5-(1-(1-acryloylazetidin-3-yl)piperidin-4-yl)-6-fluoro-10-methyl-1-(6-methyl-4-(trifluoromethyl)pyridin-2-yl)-1,3a,4,5,10,11a-hexahydro-2H-benzo[b]pyrrolo [2,3-f][1,4] diazocine-2,11(3H)-dione]",430000 M⁻¹ s⁻¹
8,"C=CC(=O)N1CC(N2CCC(F)(CN3C[C@H]4CC(=O)N(c5cc(C(F)(F)F)cc(C)n5)[C@@H]4C(=O)N(C)c4cccc(Cl)c43)CC2)C1 [Example 217, (3aR,11aS)-5-((1-(1-acryloylazetidin-3-yl)-4-fluoropiperidin-4-yl)methyl)-6-chloro-10-methyl-1-(6-methyl-4-(trifluoromethyl)pyridin-2-yl)-1,3a,4,5,10,11a-hexahydro-2H-benzo[b] pyrrolo[2,3-f] [1,4]diazocine-2,11(3H)-dione]",1.59e+06 M⁻¹ s⁻¹
9,"C=CC(=O)N1CC(N2CC[C@H](CN3C[C@H]4CC(=O)N(c5cc(C(F)(F)F)cc(C)n5)[C@@H]4C(=O)N(C)c4cccc(Cl)c43)C2)C1 [Example 218, (3aR,11aS)-5-(((S)-1-(1-acryloylazetidin-3-yl)pyrrolidin-3-yl)methyl)-6-chloro-10-methyl-1-(6-methyl-4-(trifluoromethyl)pyridin-2-yl)-1,3a,4,5,10,11a-hexahydro-2H-benzo[b]pyrrolo [2,3-f][1,4] diazocine-2,11 (3H)-dione]",1.62e+06 M⁻¹ s⁻¹
10,"C=CC(=O)N1CC(N2CC[C@@H](CN3C[C@H]4CC(=O)N(c5cc(C(F)(F)F)cc(C)n5)[C@@H]4C(=O)N(C)c4cccc(Cl)c43)C2)C1 [Example 219, (3aR,11aS)-5-(((R)-1-(1-acryloylazetidin-3-yl)pyrrolidin-3-yl)methyl)-6-chloro-10-methyl-1-(6-methyl-4-(trifluoromethyl)pyridin-2-yl)-1,3a,4,5,10,11a-hexahydro-2H-benzo[b]pyrrolo [2,3-f][1,4] diazocine-2,11(3H)-dione]",560000 M⁻¹ s⁻¹
11,"C=CC(=O)N1CC(N2CC[C@@H](CCN3C[C@H]4CC(=O)N(c5cc(C(F)(F)F)cc(C)n5)[C@@H]4C(=O)N(C)c4cccc(Cl)c43)C2)C1 [Example 220, (3aR,11aS)-5-(2-((S)-1-(1-acryloylazetidin-3-yl)pyrrolidin-3-yl)ethyl)-6-chloro-10-methyl-1-(6-methyl-4-(trifluoromethyl)pyridin-2-yl)-1,3a,4,5,10,11a-hexahydro-2H-benzo[b]pyrrolo [2,3-f][1,4] diazocine-2,11(3H)-dione]",3.66e+06 M⁻¹ s⁻¹
12,"C=CC(=O)N1CC(N2CC[C@H](CCN3C[C@H]4CC(=O)N(c5cc(C(F)(F)F)cc(C)n5)[C@@H]4C(=O)N(C)c4cccc(Cl)c43)C2)C1 [Example 221, (3aR,11aS)-5-(2-((R)-1-(1-acryloylazetidin-3-yl)pyrrolidin-3-yl)ethyl)-6-chloro-10-methyl-1-(6-methyl-4-(trifluoromethyl)pyridin-2-yl)-1,3a,4,5,10,11a-hexahydro-2H-benzo[b] pyrrolo[2,3-f] [1,4]diazocine-2,11(3H)-dione]",3.03e+06 M⁻¹ s⁻¹
13,"C=CC(=O)N1CCC(N2CCC(CN3C[C@H]4CC(=O)N(c5cc(C(F)(F)F)cc(C)n5)[C@@H]4C(=O)N(C)c4cccc(Cl)c43)CC2)C1 (stereo partly drawn) [Example 222, (3aR,11aS)-5-((1-(1-acryloylpyrrolidin-3-yl)piperidin-4-yl)methyl)-6-chloro-10-methyl-1-(6-methyl-4-(trifluoromethyl)pyridin-2-yl)-1,3a,4,5,10,11a-hexahydro-2H-benzo[b]pyrrolo [2,3-f][1,4] diazocine-2,11(3H)-dione]",2.04e+06 M⁻¹ s⁻¹
14,"C=CC(=O)N1CC(N2CC[C@H](CN3C[C@H]4CC(=O)N(c5cc(C(F)(F)F)cc(C)n5)[C@@H]4C(=O)N(C)c4cccc(C)c43)C2)C1 [Example 223, (3aR,11aS)-5-(((S)-1-(1-acryloylazetidin-3-yl)pyrrolidin-3-yl)methyl)-6,10-dimethyl-1-(6-methyl-4-(trifluoromethyl)pyridin-2-yl)-1,3a,4,5,10,11a-hexahydro-2H-benzo[b]pyrrolo [2,3-f][1,4] diazocine-2,11(3H)-dione]",1.62e+06 M⁻¹ s⁻¹
15,"C=CC(=O)N1CC(N2CC[C@@H](CN3C[C@H]4CC(=O)N(c5cc(C(F)(F)F)cc(C)n5)[C@@H]4C(=O)N(C)c4cccc(C)c43)C2)C1 [Example 224, (3aR,11aS)-5-(((R)-1-(1-acryloylazetidin-3-yl)pyrrolidin-3-yl)methyl)-6,10-dimethyl-1-(6-methyl-4-(trifluoromethyl)pyridin-2-yl)-1,3a,4,5,10,11a-hexahydro-2H-benzo[b]pyrrolo [2,3-f][1,4] diazocine-2,11(3H)-dione]",4.21e+06 M⁻¹ s⁻¹
16,"C=CC(=O)N1Cc2ncc(CN3C[C@H]4CC(=O)N(c5cc(C(F)(F)F)cc(C)n5)[C@@H]4C(=O)N(C)c4cccc(C)c43)nc2C1 [Example 228, (3aR,11aS)-5-((6-acryloyl-6,7-dihydro-5H-pyrrolo[3,4-b]pyrazin-2-yl)methyl)-6,10-dimethyl-1-(6-methyl-4-(trifluoromethyl)pyridin-2-yl)-1,3a,4,5,10,11a-hexahydro-2H-benzo[b]pyrrolo[2,3-f][1,4]diazocine-2,11(3H)-dione]",2.26e+06 M⁻¹ s⁻¹
